Laboratory results taken from US9738655B2, “Tetrahydroisoquinolines containing substituted azoles as factor XIa inhibitors” (BRISTOL-MYERS SQUIBB COMPANY, priority 2013, dated 2017).
Counter-ions that a name gives are not always drawn. Like-named read-outs stand apart in the source and are kept apart here.

Key:
[1] = molecular target: purified human plasma kallikrein (Homo sapiens (Human), UniProt P03952); test: Plasma kallikrein enzyme inhibition assay (chromogenic substrate S-2302); type: biochemical
Sequence of purified human plasma kallikrein (P03952 391-638): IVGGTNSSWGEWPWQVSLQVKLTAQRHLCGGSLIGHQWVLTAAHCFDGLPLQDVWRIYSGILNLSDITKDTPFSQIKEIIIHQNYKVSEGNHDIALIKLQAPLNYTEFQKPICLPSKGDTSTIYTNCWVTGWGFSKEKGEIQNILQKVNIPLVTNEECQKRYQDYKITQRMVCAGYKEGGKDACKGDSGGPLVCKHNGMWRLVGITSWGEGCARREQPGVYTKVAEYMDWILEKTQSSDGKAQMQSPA
Sequence of purified human plasma kallikrein (P03952 20-390 partner): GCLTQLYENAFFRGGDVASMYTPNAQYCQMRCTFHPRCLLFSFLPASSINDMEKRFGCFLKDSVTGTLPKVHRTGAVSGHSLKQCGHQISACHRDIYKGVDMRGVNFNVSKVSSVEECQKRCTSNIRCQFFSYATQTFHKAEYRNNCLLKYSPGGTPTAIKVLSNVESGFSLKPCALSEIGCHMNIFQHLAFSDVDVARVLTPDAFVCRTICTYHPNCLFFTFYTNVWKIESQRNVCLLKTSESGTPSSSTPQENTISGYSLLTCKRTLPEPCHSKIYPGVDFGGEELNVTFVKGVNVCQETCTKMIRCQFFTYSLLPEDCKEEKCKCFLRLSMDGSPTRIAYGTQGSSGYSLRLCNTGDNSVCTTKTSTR

[2] = molecular target: purified human Factor XIa (Homo sapiens (Human), UniProt P03951); test: Factor XIa enzyme inhibition assay (chromogenic substrate S-2366); conditions: read-out: Factor XIa Ki
Sequence of purified human Factor XIa (P03951 388-625): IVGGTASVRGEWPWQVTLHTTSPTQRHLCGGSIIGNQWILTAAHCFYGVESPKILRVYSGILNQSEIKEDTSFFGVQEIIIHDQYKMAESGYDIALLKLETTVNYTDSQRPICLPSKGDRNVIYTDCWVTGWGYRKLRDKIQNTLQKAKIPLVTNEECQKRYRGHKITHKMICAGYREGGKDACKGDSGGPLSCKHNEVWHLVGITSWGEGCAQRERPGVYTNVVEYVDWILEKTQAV
Sequence of purified human Factor XIa (P03951 19-387 partner): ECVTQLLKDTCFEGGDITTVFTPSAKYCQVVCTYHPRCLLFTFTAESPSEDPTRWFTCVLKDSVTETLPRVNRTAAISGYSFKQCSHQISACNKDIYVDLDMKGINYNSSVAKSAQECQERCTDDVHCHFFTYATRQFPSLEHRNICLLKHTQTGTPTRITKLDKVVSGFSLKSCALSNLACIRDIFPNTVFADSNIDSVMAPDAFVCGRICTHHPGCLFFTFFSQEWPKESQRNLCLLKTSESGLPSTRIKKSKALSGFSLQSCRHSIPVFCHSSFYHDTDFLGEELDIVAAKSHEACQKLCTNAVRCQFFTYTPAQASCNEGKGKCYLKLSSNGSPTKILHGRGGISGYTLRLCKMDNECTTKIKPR

[3] = measured at 25° C. (no asterisk)

Row | Structure (SMILES) | Ki [1, 3] | Ki ([2]; measured at 25° C.) | Ki ([1]; measured at 37° C. (*)) | Ki [2]
1 | CN1CCN(c2cccc3c2CCN(C(=O)c2cnn(-c4cccc(Cl)c4)c2)C3C(=O)Nc2ccc(C(=O)O)cc2)CC1 (centres unmarked) [Example 200, 4-(2-(1-(3-chlorophenyl)-1H-pyrazole-4-carbonyl)-5-(4-methylpiperazin-1-yl)-1,2,3,4-tetrahydroisoquinoline-1-carboxamido)benzoic acid, 2 TFA salt] | 10.7 nM | 41.7 nM | – | –
2 | CN1CCN(c2cccc3c2CCN(C(=O)c2cn(-c4cccc(Cl)c4)nn2)C3C(=O)Nc2ccc(C(=O)O)cc2)CC1 (centres unmarked) [Example 201, 4-(2-(1-(3-chlorophenyl)-1H-1,2,3-triazole-4-carbonyl)-5-(4-methylpiperazin-1-yl)-1,2,3,4-tetrahydroisoquinoline-1-carboxamido)benzoic acid, 2 TFA salt] | 4.21 nM | 9.88 nM | – | –
3 | CN1CCN(c2cccc3c2CCN(C(=O)C2CC(c4cccc(Cl)c4)=NO2)C3C(=O)Nc2ccc(C(=O)O)cc2)CC1 (centres unmarked) [Example 217, 4-(2-(3-(3-chlorophenyl)-4,5-dihydroisoxazole-5-carbonyl)-5-(4-methylpiperazin-1-yl)-1,2,3,4-tetrahydroisoquinoline-1-carboxamido)benzoic acid, 2 TFA salt] | 3.12 nM | 15.2 nM | – | –
4 | Cn1cc2c(n1)CCN(C(=O)c1cn(-c3cccc(Cl)c3F)nn1)C2C(=O)Nc1ccc(C(=O)O)cc1 (centres unmarked) [Example 220, 4-(5-(1-(3-Chloro-2-fluorophenyl)-1H-1,2,3-triazole-4-carbonyl)-2-methyl-4,5,6,7-tetrahydro-2H-pyrazolo[4,3-c]pyridine-4-carboxamido)benzoic acid] | 179 nM | 769 nM | – | –
5 | Cc1nn(C)c2c1C(C(=O)Nc1ccc(C(=O)O)cc1)N(C(=O)c1cn(-c3cccc(Cl)c3F)nn1)CC2 (centres unmarked) [Example 221, 4-(5-(1-(3-Chloro-2-fluorophenyl)-1H-1,2,3-triazole-4-carbonyl)-1,3-dimethyl-4,5,6,7-tetrahydro-1H-pyrazolo[4,3-c]pyridine-4-carboxamido)benzoic acid] | 9.56 nM | 179 nM | – | –
6 | Cc1c2c(nn1C)CCN(C(=O)c1cn(-c3cccc(Cl)c3F)nn1)C2C(=O)Nc1ccc(C(=O)O)cc1 (centres unmarked) [Example 222, 4-(5-(1-(3-Chloro-2-fluorophenyl)-1H-1,2,3-triazole-4-carbonyl)-2,3-dimethyl-4,5,6,7-tetrahydro-2H-pyrazolo[4,3-c]pyridine-4-carboxamido)benzoic acid] | 10.4 nM | 30 nM | – | –
7 | CC(C)c1nnc2n1CCN(C(=O)c1cn(-c3cccc(Cl)c3F)nn1)C2C(=O)Nc1ccc(C(=O)O)cc1 (centres unmarked) [Example 223, 4-(7-(1-(3-Chloro-2-fluorophenyl)-1H-1,2,3-triazole-4-carbonyl)-3-isopropyl-5,6,7,8-tetrahydro-[1,2,4]triazolo[4,3-a]pyrazine-8-carboxamido)benzoic acid] | 3510 nM | 2630 nM | – | –
8 | O=C(O)c1ccc(NC(=O)[C@@H]2c3cccc(N4CCN(CC(F)(F)F)CC4)c3CCN2C(=O)[C@H]2CC(c3cccc(Cl)c3F)=NO2)cc1 [Example 230, 4-((S)-2-((R)-3-(3-Chloro-2-fluorophenyl)-4,5-dihydroisoxazole-5-carbonyl)-5-(4-(2,2,2-trifluoroethyl)piperazin-1-yl)-1,2,3,4-tetrahydroisoquinoline-1-carboxamido)benzoic acid, 2 TFA salt] | – | – | 12.3 nM | < 5 nM

Second part, led by results:

Row | Ki [1, 3] | Ki ([2]; measured at 25° C.) | Structure (SMILES) | Ki ([1]; measured at 37° C. (*)) | Ki [2]
9 | 0.64 nM | < 5 nM | CN1CCN(c2cccc3c2CCN(C(=O)C2CC(c4c(F)ccc(Cl)c4F)=NO2)C3C(=O)Nc2ccc(C(=O)O)cc2)CC1 (centres unmarked) [Example 205, 4-(2-(3-(3-chloro-2,6-difluorophenyl)-4,5-dihydroisoxazole-5-carbonyl)-5-(4-methylpiperazin-1-yl)-1,2,3,4-tetrahydroisoquinoline-1-carboxamido)benzoic acid, 2 TFA salt] | – | –
10 | 0.52 nM | < 5 nM | CN1CCN(c2cccc3c2CCN(C(=O)c2cn(-c4cccc(Cl)c4F)nn2)C3C(=O)Nc2ccc(C(=O)O)cc2)CC1 (centres unmarked) [Example 211, 4-(2-(1-(3-chloro-2-fluorophenyl)-1H-1,2,3-triazole-4-carbonyl)-5-(4-methylpiperazin-1-yl)-1,2,3,4-tetrahydroisoquinoline-1-carboxamido)benzoic acid, 2 TFA salt] | – | –
11 | 20.2 nM | < 5 nM | COC1CCN(c2cccc3c2CCN(C(=O)c2cn(-c4cccc(Cl)c4F)nn2)C3C(=O)Nc2ccc(C(=O)O)cc2)CC1 (centres unmarked) [Example 215, 4-(2-(1-(3-chloro-2-fluorophenyl)-1H-1,2,3-triazole-4-carbonyl)-5-(4-methoxypiperidin-1-yl)-1,2,3,4-tetrahydroisoquinoline-1-carboxamido)benzoic acid, TFA salt] | – | –
12 | 1.96 nM | < 5 nM | CCOC(=O)c1ccc(NC(=O)C2c3cccc(N4CCC(N5CCCC5)CC4)c3CCN2C(=O)c2cn(-c3cccc(Cl)c3F)nn2)cc1 (centres unmarked) [Example 219, Ethyl 4-(2-(1-(3-chloro-2-fluorophenyl)-1H-1,2,3-triazole-4-carbonyl)-5-(4-(pyrrolidin-1-yl)piperidin-1-yl)-1,2,3,4-tetrahydroisoquinoline-1-carboxamido)benzoate, 2 TFA salt] | – | –
13 | 92 nM | < 5 nM | COC(C)(C)C1CCN(c2cccc3c2CCN(C(=O)c2cnn(-c4cccc(Cl)c4F)c2)C3C(=O)Nc2ccc(C(=O)O)cc2)CC1 (centres unmarked) [Example 224, 4-(2-(1-(3-Chloro-2-fluorophenyl)-1H-pyrazole-4-carbonyl)-5-(4-(2-methoxypropan-2-yl)piperidin-1-yl)-1,2,3,4-tetrahydroisoquinoline-1-carboxamido)benzoic acid, TFA salt] | – | –
14 | 48.8 nM | < 5 nM | CC(CO)(CO)COC(C)(C)C1CCN(c2cccc3c2CCN(C(=O)c2cnn(-c4cccc(Cl)c4F)c2)C3C(=O)Nc2ccc(C(=O)O)cc2)CC1 (centres unmarked) [Example 225, 4-(2-(1-(3-Chloro-2-fluorophenyl)-1H-pyrazole-4-carbonyl)-5-(4-(2-(3-hydroxy-2-(hydroxymethyl)-2-methylpropoxy)propan-2-yl)piperidin-1-yl)-1,2,3,4-tetrahydroisoquinoline-1-carboxamido)benzoic acid, TFA salt] | – | –
15 | 7.65 nM | < 5 nM | O=C(O)c1ccc(NC(=O)C2c3cccc(N4CCN(C5COC5)CC4)c3CCN2C(=O)c2cn(-c3cccc(Cl)c3F)nn2)cc1 (centres unmarked) [Example 226, 4-(2-(1-(3-Chloro-2-fluorophenyl)-1H-1,2,3-triazole-4-carbonyl)-5-(4-(oxetan-3-yl)piperazin-1-yl)-1,2,3,4-tetrahydroisoquinoline-1-carboxamido)benzoic acid, TFA salt] | – | –
16 | – | < 5 nM | O=C(O)c1ccc(NC(=O)C2c3cccc(N4CCN(CC(F)(F)F)CC4)c3CCN2C(=O)c2cn(-c3cccc(Cl)c3F)nn2)cc1 (centres unmarked) [Example 229, 4-(2-(1-(3-Chloro-2-fluorophenyl)-1H-1,2,3-triazole-4-carbonyl)-5-(4-(2,2,2-trifluoroethyl)piperazin-1-yl)-1,2,3,4-tetrahydroisoquinoline-1-carboxamido) benzoic acid, TFA salt] | 124 nM | –
